Like-named read-outs stand apart in the source and are kept apart here.
System: Angiotensin II (AII) vasopressor response
Test: AII Challenge: antagonism of angiotensin II vasopressor response in conscious spontaneously hypertensive rats
Format: in vivo, rat (male okamoto-Aoki SHR)
Details: for inhibition in vivo at 3 mg/kg: Rattus norvegicus, read-out: Inhibition; for Change: single SHR
How it was run: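 Conscious male SHR (16–20 weeks, ~330 g) cannulated under local procaine, blood pressure recorded via transducer. Angiotensin II (human) 0.05 and 0.1 ug/kg i.v. given before and after test compound dosed i.v., i.p. or orally; response measured as rise in systolic pressure (mmHg).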

CCCCc1nc2ccc([C@H]3[C@@H]4C(=O)CC[C@@H]4ON3Cc3ccccc3)cc2c(=O)n1Cc1ccc(-c2ccccc2-c2nnn[nH]2)cc1 (relative stereo) [Example 55]
inhibition in vivo at 3 mg/kg (iv, 0.5 h, SHR n=2, 3 mg/kg I.V., AII 0.05 mcg/kg IV, 30 min post dose): 97% | inhibition in vivo at 3 mg/kg (iv, 0.5 h, SHR n=2, 3 mg/kg I.V., AII 0.1 mcg/kg IV, 30 min post dose): 95% | inhibition in vivo at 3 mg/kg (iv, 1 h, SHR n=2, 3 mg/kg I.V., AII 0.05 mcg/kg IV, 60 min post dose): 100% | inhibition in vivo at 3 mg/kg (iv, 1 h, SHR n=2, 3 mg/kg I.V., AII 0.1 mcg/kg IV, 60 min post dose): 95% | inhibition in vivo at 3 mg/kg (iv, 2 h, SHR n=2, 3 mg/kg I.V., AII 0.05 mcg/kg IV, 120 min post dose): 97% | inhibition in vivo at 3 mg/kg (iv, 2 h, SHR n=2, 3 mg/kg I.V., AII 0.1 mcg/kg IV, 120 min post dose): 94% | inhibition in vivo at 3 mg/kg (iv, 3 h, SHR n=2, 3 mg/kg I.V., AII 0.1 mcg/kg IV, 180 min post dose): 77% | inhibition in vivo at 3 mg/kg (iv, 4 h, SHR n=2, 3 mg/kg I.V., AII 0.05 mcg/kg IV, 240 min post dose): 89% | inhibition in vivo at 3 mg/kg (iv, 4 h): 82% | inhibition in vivo at 3 mg/kg (iv, 5 h, SHR n=2, 3 mg/kg I.V., AII 0.05 mcg/kg IV, 300 min post dose): 61% | inhibition in vivo at 3 mg/kg (iv, 5 h, SHR n=2, 3 mg/kg I.V., AII 0.1 mcg/kg IV, 300 min post dose): 50% | inhibition in vivo at 3 mg/kg (iv, […], SHR n=2, 3 mg/kg I.V., AII 0.05 mcg/kg IV, 90 min post dose): 89% | inhibition in vivo at 3 mg/kg (iv, […], SHR n=2, 3 mg/kg I.V., AII 0.1 mcg/kg IV, 90 min post dose): 91% | inhibition in vivo at 3 mg/kg (po, 0.5 h, SHR n=2, 3 mg/kg P.O., AII 0.05 mcg/kg IV, 30 min post dose): 21% | inhibition in vivo at 3 mg/kg (po, 0.5 h, SHR n=2, 3 mg/kg P.O., AII 0.1 mcg/kg IV, 30 min post dose): 17% | inhibition in vivo at 3 mg/kg (po, 1 h, SHR n=2, 3 mg/kg P.O., AII 0.05 mcg/kg IV, 60 min post dose): 7% | inhibition in vivo at 3 mg/kg (po, 1 h, SHR n=2, 3 mg/kg P.O., AII 0.1 mcg/kg IV, 60 min post dose): 11% | inhibition in vivo at 3 mg/kg (po, 2 h, SHR n=2, 3 mg/kg P.O., AII 0.05 mcg/kg IV, 120 min post dose): 21% | inhibition in vivo at 3 mg/kg (po, 2 h, SHR n=2, 3 mg/kg P.O., AII 0.1 mcg/kg IV, 120 min post dose): 39% | inhibition in vivo at 3 mg/kg (po, 3 h, SHR n=2, 3 mg/kg P.O., AII 0.05 mcg/kg IV, 180 min post dose): 14% | inhibition in vivo at 3 mg/kg (po, 3 h, SHR n=2, 3 mg/kg P.O., AII 0.1 mcg/kg IV, 180 min post dose): 28% | inhibition in vivo at 3 mg/kg (po, […], SHR n=2, 3 mg/kg P.O., AII 0.05 mcg/kg IV, 90 min post dose): 14% | inhibition in vivo at 3 mg/kg (po, […], SHR n=2, 3 mg/kg P.O., AII 0.1 mcg/kg IV, 90 min post dose): 17% | Average Change (SHR n=2, 3 mg/kg I.V., AII 0.05 mcg/kg IV, 30 min post dose): 1.5 mmHg | Average Change (SHR n=2, 3 mg/kg I.V., AII 0.05 mcg/kg IV, 60 min post dose): 0 mmHg | Average Change (SHR n=2, 3 mg/kg I.V., AII 0.05 mcg/kg IV, 90 min post dose): 5 mmHg | Average Change (SHR n=2, 3 mg/kg I.V., AII 0.05 mcg/kg IV, 120 min post dose): 1.5 mmHg | Average Change (SHR n=2, 3 mg/kg I.V., AII 0.05 mcg/kg IV, 180 min post dose): 2.5 mmHg | Average Change (SHR n=2, 3 mg/kg I.V., AII 0.05 mcg/kg IV, 240 min post dose): 5 mmHg | Average Change (SHR n=2, 3 mg/kg I.V., AII 0.05 mcg/kg IV, 300 min post dose): 17.5 mmHg | Average Change (SHR n=2, 3 mg/kg I.V., AII 0.1 mcg/kg IV, 30 min post dose): 2.5 mmHg | Average Change (SHR n=2, 3 mg/kg I.V., AII 0.1 mcg/kg IV, 60 min post dose): 2.5 mmHg | Average Change (SHR n=2, 3 mg/kg I.V., AII 0.1 mcg/kg IV, 90 min post dose): 5 mmHg | Average Change (SHR n=2, 3 mg/kg I.V., AII 0.1 mcg/kg IV, 120 min post dose): 3.5 mmHg | Average Change (SHR n=2, 3 mg/kg I.V., AII 0.1 mcg/kg IV, 180 min post dose): 12.5 mmHg | Average Change (SHR n=2, 3 mg/kg I.V., AII 0.1 mcg/kg IV, 240 min post dose): 10 mmHg | Average Change (SHR n=2, 3 mg/kg I.V., AII 0.1 mcg/kg IV, 300 min post dose): 27.5 mmHg | Average Change (SHR n=2, 3 mg/kg P.O., AII 0.05 mcg/kg IV, 30 min post dose): 27.5 mmHg | Average Change (SHR n=2, 3 mg/kg P.O., AII 0.05 mcg/kg IV, 60 min post dose): 32.5 mmHg | Average Change (SHR n=2, 3 mg/kg P.O., AII 0.05 mcg/kg IV, 90 min post dose): 30 mmHg | Average Change (SHR n=2, 3 mg/kg P.O., AII 0.05 mcg/kg IV, 120 min post dose): 27.5 mmHg | Average Change (SHR n=2, 3 mg/kg P.O., AII 0.05 mcg/kg IV, 180 min post dose): 30 mmHg | Average Change (SHR n=2, 3 mg/kg P.O., AII 0.1 mcg/kg IV, 30 min post dose): 37.5 mmHg | Average Change (SHR n=2, 3 mg/kg P.O., AII 0.1 mcg/kg IV, 60 min post dose): 40 mmHg | Average Change (SHR n=2, 3 mg/kg P.O., AII 0.1 mcg/kg IV, 90 min post dose): 37.5 mmHg | Average Change (SHR n=2, 3 mg/kg P.O., AII 0.1 mcg/kg IV, 120 min post dose): 27.5 mmHg | Average Change (SHR n=2, 3 mg/kg P.O., AII 0.1 mcg/kg IV, 180 min post dose): 32.5 mmHg | Change (3 mg/kg I.V., AII 0.05 mcg/kg IV, 60 min post dose): 0 mmHg | Change (3 mg/kg I.V., AII 0.05 mcg/kg IV, 90 min post dose): 5 mmHg | Change (3 mg/kg I.V., AII 0.05 mcg/kg IV, 240 min post dose): 5 mmHg | Change (3 mg/kg I.V., AII 0.1 mcg/kg IV, 90 min post dose): 5 mmHg | Change (3 mg/kg I.V., AII 0.1 mcg/kg IV, 240 min post dose): 10 mmHg | Change (3 mg/kg P.O., AII 0.1 mcg/kg IV, 60 min post dose): 40 mmHg

Source: patent US5294611A, “Angiotensin II receptor blocking 2,3,6 substituted quinazolinones” (American Cyanamid Company, priority 1993, dated 1994)
